Assay results reported in patent US5696151A, “Compounds useful for the inhibition of the replication of HIV-1 and HIV-1 mutants” (priority 1995, dated 1997).
Converted amounts (≈) assume the structure as drawn.

How the values were obtained:
Format in all cases: cell-based
[1] = system: HIV-1(IIIB); assay: Inhibition of HIV-1 induced syncytium formation in CEM cells, wild type; details: Table 2B, WT = HIV-1(IIIB), day 4, averages of 2 to 3 independent experiments; for EC50: Human immunodeficiency virus 1, IIIB, CCRF-CEM, 96 h, read-out: Antiviral Activity of Comparative Compounds EC50, WT
How it was run: (§1)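 Mutant strains were selected in culture for resistance to NNRTIs such as TSAO-m^3T, pyridinone L-697,661 or HEPT. Antiviral effect is inhibition of syncytium formation in infected CEM cells (~100 CCID50), assessed microscopically at day 4.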

[2] = system: HIV-1/100-Ile; assay: Inhibition of HIV-1 induced syncytium formation in CEM cells, RT mutant 100-Ile; details: Table 2B, day 4, averages of 2 to 3 independent experiments; for EC50: Human immunodeficiency virus 1, CCRF-CEM, 96 h, read-out: Antiviral Activity of Comparative Compounds EC50, 100-Ile
How it was run: as §1

[3] = system: HIV-1/103-Asn; assay: Inhibition of HIV-1 induced syncytium formation in CEM cells, RT mutant 103-Asn; details: Human immunodeficiency virus 1, CCRF-CEM, 96 h, Table 2B, day 4, averages of 2 to 3 independent experiments, read-out: Antiviral Activity of Comparative Compounds EC50, 103-Asn
From the text: (§2) CEM cells were obtained from the American Tissue Cell Culture Collection (Rockville, Md.). HIV-1(IIIB) was originally obtained from the culture supernatant of persistently HIV-1-infected H9 cells and was provided by R. C. Gallo and M. Popovic (National Cancer Institute, National Institutes of Health, Bethesda, Md.). […] 67: 5353-5359 (1993); HIV-1/Lys-138 ("Lys-138") was selected for resistance against TSAO-m^3T as described in Balzarini et al, Virology 192: 246-253 (1993) and Balzarini et al, Proc. Nat. Acad. Sci. USA 90: 6952-6956 (1993); HIV-1/181-Cys ("181-Cys") was selected for resistance against pyridinone L-697,661 as described in Balzarini et al, Virology 192: 246-253 (1993); and HIV-1/188-His ("188-His") was selected for resistance against HEPT as described in Balzarini et al, Mol. Pharmocol. 44: 694-701 (1993). 188-His was then further converted to HIV-1/188-Leu "188-Leu") upon further passage in cell culture in the absence of the HEPT.
(§3) CEM cells were suspended at ≈300,000 cells per ml of culture medium and infected with approximately 100 CCID50 (CCID50 being the 50% cell culture infective dose) of HIV-1(IIIB) or one of the HIV-1 RT mutant strains described above. Then 100 μl of the infected cell suspensions was added to 200 μl microtiter plate wells containing 100 μl of appropriate serial (5-fold) dilutions of the test compounds. The inhibitory effect of the test compounds on HIV-1 induced syncytium formation in CEM cells was examined microscopically on day 4 post infection.

[4] = system: HIV-1/106-Ala; assay: Inhibition of HIV-1 induced syncytium formation in CEM cells, RT mutant 106-Ala; details: Table 2B, day 4, averages of 2 to 3 independent experiments; for EC50: Human immunodeficiency virus 1, CCRF-CEM, 96 h, read-out: Antiviral Activity of Comparative Compounds EC50, 106-Ala
How it was run: as §1

[5] = system: HIV-1/Lys-138; assay: Inhibition of HIV-1 induced syncytium formation in CEM cells, RT mutant 138-Lys; details: Table 2B, day 4, averages of 2 to 3 independent experiments; for EC50: Human immunodeficiency virus 1, CCRF-CEM, 96 h, read-out: Antiviral Activity of Comparative Compounds EC50, 138-Lys
How it was run: as §1

[6] = system: HIV-1/181-Cys; assay: Inhibition of HIV-1 induced syncytium formation in CEM cells, RT mutant 181-Cys; details: Table 2B, day 4, averages of 2 to 3 independent experiments; for EC50: Human immunodeficiency virus 1, CCRF-CEM, 96 h, read-out: Antiviral Activity of Comparative Compounds EC50, 181-Cys
How it was run: as §1

[7] = system: HIV-1/188-Leu; assay: Inhibition of HIV-1 induced syncytium formation in CEM cells, RT mutant 188-Leu; details: Human immunodeficiency virus 1, CCRF-CEM, 96 h, Table 2B, day 4, averages of 2 to 3 independent experiments, read-out: Antiviral Activity of Comparative Compounds EC50, 188-Leu
From the text: as §2, §3

[8] = in vitro; details: human, cem cells, CC50 (50% cytostatic concentration), Table 2B; CEM cell proliferation; averages of 2 to 3 independent experiments
How it was run: (§4)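 In CEM cells, the cytostatic value is the compound concentration giving 50% inhibition of cell proliferation. Parallel work used HIV-1(IIIB) and culture-selected resistant strains Lys-138, 181-Cys, 188-His and 188-Leu.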

[9] = system: CEM cells; assay: in vitro; details: Table 2B; CEM cell proliferation; averages of 2 to 3 independent experiments
How it was run: as §4

Compound | EC50 [1] [µg/mL] | EC50 [2] [µg/mL] | EC50 [3] [µg/mL] | EC50 [4] [µg/mL] | EC50 [5] [µg/mL] | EC50 [6] [µg/mL] | EC50 [7] [µg/mL] | CC50 [8] [µg/mL] | Antiviral Activity of Comparative Compounds EC50, WT [1] [µg/mL] | Antiviral Activity of Comparative Compounds EC50, 100-Ile [2] [µg/mL] | Antiviral Activity of Comparative Compounds EC50, 106-Ala [4] [µg/mL] | Antiviral Activity of Comparative Compounds EC50, 138-Lys [5] [µg/mL] | Antiviral Activity of Comparative Compounds EC50, 181-Cys [6] [µg/mL] | CC50 (50% cytostatic concentration) [9] [µg/mL]
CC(C)=CCOc1cc(NC(=O)c2ccsc2C)ccc1Cl [Compound 27] | 0.01 (≈ 0.0298 µM) | 0.36 (≈ 1.07 µM) | 0.5 (≈ 1.49 µM) | 0.11 (≈ 0.328 µM) | 0.15 (≈ 0.447 µM) | 0.46 (≈ 1.37 µM) | > 2 | 6 (≈ 17.9 µM) | – | – | – | – | – | –
Cc1sccc1C(=S)Nc1ccc(Cl)c(OCC2CCCC2)c1 [Compound 28] | 0.029 (≈ 0.0792 µM) | 0.22 (≈ 0.601 µM) | 0.33 (≈ 0.902 µM) | 0.23 (≈ 0.628 µM) | 0.11 (≈ 0.301 µM) | 0.5 (≈ 1.37 µM) | > 2 | 4.3 (≈ 11.8 µM) | – | – | – | – | – | –
Cc1sccc1C(=S)Nc1ccc(Cl)c(OCC(C)(C)C)c1 [Compound 29] | 0.14 (≈ 0.396 µM) | 0.5 (≈ 1.41 µM) | 0.43 (≈ 1.21 µM) | 0.5 (≈ 1.41 µM) | 0.05 (≈ 0.141 µM) | 0.55 (≈ 1.55 µM) | > 2 | 6.2 (≈ 17.5 µM) | – | – | – | – | – | –
CC(C)=CCOc1cc(NC(=O)c2ccoc2C)ccc1Cl [Compound 30] | 0.015 (≈ 0.0469 µM) | 1.27 (≈ 3.97 µM) | 1.67 (≈ 5.22 µM) | 0.34 (≈ 1.06 µM) | 0.23 (≈ 0.719 µM) | 0.65 (≈ 2.03 µM) | > 2 | > 100 | – | – | – | – | – | –
Cc1sccc1C(=O)Nc1ccc(Cl)c(C(=O)OC(C)C)c1 [Compound 31] | 0.09 (≈ 0.266 µM) | ≥ 2 | ≥ 2 | 0.6 (≈ 1.78 µM) | 0.93 (≈ 2.75 µM) | 0.73 (≈ 2.16 µM) | > 2 | 5.5 (≈ 16.3 µM) | – | – | – | – | – | –
Cc1sccc1C(=O)Nc1ccc(Cl)c(C(=O)OC(C(C)C)C(C)C)c1 [Compound 32] | 0.16 (≈ 0.406 µM) | ≥ 2 | ≥ 2 | ≥ 2 | ≥ 2 | 0.95 (≈ 2.41 µM) | > 2 | 4.1 (≈ 10.4 µM) | – | – | – | – | – | –
Cc1sccc1C(=O)Nc1ccc(Cl)c(OCCC(C)C)c1 [Compound 33] | 0.063 (≈ 0.186 µM) | 0.95 (≈ 2.81 µM) | 1 (≈ 2.96 µM) | 0.65 (≈ 1.92 µM) | 0.62 (≈ 1.84 µM) | 1.07 (≈ 3.17 µM) | > 2 | 7 (≈ 20.7 µM) | – | – | – | – | – | –
CC=CCSc1cc(NC(=O)c2ccsc2C)ccc1Cl [Compound 34] | 0.08 (≈ 0.237 µM) | 0.65 (≈ 1.92 µM) | 0.8 (≈ 2.37 µM) | 0.28 (≈ 0.829 µM) | 0.5 (≈ 1.48 µM) | 1.2 (≈ 3.55 µM) | > 2 | 4.8 (≈ 14.2 µM) | – | – | – | – | – | –
CC=CCSc1cc(NC(=O)c2ccoc2C)ccc1Cl [Compound 35] | 0.16 (≈ 0.497 µM) | 1.5 (≈ 4.66 µM) | 0.55 (≈ 1.71 µM) | 0.8 (≈ 2.49 µM) | 0.7 (≈ 2.18 µM) | 1.6 (≈ 4.97 µM) | > 2 | 5.9 (≈ 18.3 µM) | – | – | – | – | – | –
CSc1sccc1C(=O)Nc1ccc(Cl)c(C=NOC(C)(C)C)c1 [Compound 36] | 0.18 (≈ 0.47 µM) | 1.23 (≈ 3.21 µM) | 1.2 (≈ 3.13 µM) | 0.85 (≈ 2.22 µM) | 0.85 (≈ 2.22 µM) | 1.6 (≈ 4.18 µM) | > 2 | 7.8 (≈ 20.4 µM) | – | – | – | – | – | –
Cc1occc1C(=O)Nc1ccc(Cl)c(OCCC(C)C)c1 [Compound 37] | 0.16 (≈ 0.497 µM) | ≥ 2 | ≥ 2 | 1.3 (≈ 4.04 µM) | 1.25 (≈ 3.88 µM) | 1.73 (≈ 5.38 µM) | > 2 | 5 (≈ 15.5 µM) | – | – | – | – | – | –
Cc1c(C(=O)Nc2ccc(Cl)c(C=NOC(C)(C)C)c2)ccn1C [Compound 38] | 0.08 (≈ 0.23 µM) | ≥ 2 | ≥ 2 | 0.7 (≈ 2.01 µM) | ≥ 2 | > 2 | > 2 | 5.5 (≈ 15.8 µM) | – | – | – | – | – | –
Cc1occc1C(=S)Nc1ccc(Cl)c(OCC(C)(C)C)c1 [Compound 39] | 0.15 (≈ 0.444 µM) | 1.4 (≈ 4.14 µM) | 0.7 (≈ 2.07 µM) | > 2 | 0.5 (≈ 1.48 µM) | ≥ 2 | > 2 | 4.1 (≈ 12.1 µM) | – | – | – | – | – | –
CC=CCOc1cc(NC(=O)c2ccoc2C)ccc1Cl [Compound 40] | 0.24 (≈ 0.785 µM) | 1.4 (≈ 4.58 µM) | ≥ 2 | > 2 | 1.2 (≈ 3.92 µM) | > 2 | > 2 | 5.8 (≈ 19 µM) | – | – | – | – | – | –
CC1=C(C(=O)Nc2ccc(Cl)c(OCCC(C)C)c2)SCCO1 [Compound 41] | 0.28 (≈ 0.787 µM) | ≥ 2 | ≥ 2 | ≥ 2 | ≥ 2 | ≥ 2 | > 2 | > 100 | – | – | – | – | – | –
Cc1sccc1C(=O)Nc1ccc(Cl)c(OCC2CCCC2)c1 [Compound 42] | 0.36 (≈ 1.03 µM) | ≥ 2 | ≥ 2 | ≥ 2 | ≥ 2 | ≥ 2 | > 2 | 5 (≈ 14.3 µM) | – | – | – | – | – | –
CC=CCOc1cc(NC(=O)C2=C(CC)OCCS2)ccc1Cl [Compound 43] | 0.65 (≈ 1.84 µM) | 1.2 (≈ 3.39 µM) | 1.3 (≈ 3.67 µM) | 4.5 (≈ 12.7 µM) | 1.3 (≈ 3.67 µM) | > 2 | > 2 | 11 (≈ 31.1 µM) | – | – | – | – | – | –
Cc1occc1C(=S)Nc1ccc(Cl)c(OCCC(C)C)c1 [Compound 44] | 0.0073 (≈ 0.0216 µM) | 0.035 (≈ 0.104 µM) | 0.08 (≈ 0.237 µM) | 0.06 (≈ 0.178 µM) | 0.03 (≈ 0.0888 µM) | 0.08 (≈ 0.237 µM) | > 10 | > 100 | – | – | – | – | – | –
CC=CCOc1cc(NC(=O)c2ccsc2C)ccc1Cl [Compound 45] | 0.15 (≈ 0.466 µM) | 0.6 (≈ 1.86 µM) | 0.95 (≈ 2.95 µM) | 0.85 (≈ 2.64 µM) | 0.65 (≈ 2.02 µM) | 0.5 (≈ 1.55 µM) | > 10 | 87 (≈ 270 µM) | – | – | – | – | – | –
Cc1occc1C(=S)Nc1ccc(Cl)c(OC(=O)OC(C)C)c1 [Compound 46] | 0.37 (≈ 1.05 µM) | 4.5 (≈ 12.7 µM) | 4 (≈ 11.3 µM) | 3 (≈ 8.48 µM) | 0.6 (≈ 1.7 µM) | 5.5 (≈ 15.5 µM) | ≥ 2 | 25 (≈ 70.7 µM) | – | – | – | – | – | –
CON=Cc1cc(NC(=O)c2ccoc2C)ccc1OC [Compound 47] | 0.23 (≈ 0.798 µM) | ≥ 10 | ≥ 10 | ≥ 10 | ≥ 10 | ≥ 10 | ≥ 10 | > 100 | – | – | – | – | – | –
Cc1sccc1C(=O)Nc1ccc(Cl)c(C(=O)OC2CCCCC2)c1 [Compound 58] | – | – | – | – | – | – | – | – | 0.19 | 5.5 | 7.0 | 6.0 | 5.0 | 6.5 (≈ 17.2 µM)
Cc1sccc1C(=S)Nc1ccc(Cl)c(C(=O)OC2CCCCC2)c1 [Compound 59] | – | – | – | – | – | – | – | – | 0.09 | 0.65 | 0.60 | 0.40 | 0.35 | 15 (≈ 38.1 µM)
Cc1occc1C(=S)Nc1ccc(Cl)c(C=NOC(C)(C)C)c1 [Compound 114] | – | – | – | – | – | – | – | – | 0.05 | 0.085 | 0.13 | 0.075 | 0.075 | 5.8 (≈ 16.5 µM)
